Test results as given in patent publication US20250040935A1, “FABRICATION OF RADIOPAQUE RESORBABLE HYDROGEL BEADS VIA MICROFLUIDICS FOR CATHETER EMBOLIZATION APPLICATIONS” (Saint Louis University, priority 2023, published 2025).

Key:
Assay type in all cases: physicochemical
[1] = Apalutamide and docetaxel microsphere release study; conditions: within the first 24 hrs; microspheres, PEG and 20% w/v 1 μm BaSO4 groups
Protocol: Barium microspheres (20% w/v) were fabricated using the T-junction and then frozen overnight at −80 degrees Celsius. The next morning the microspheres were lyophilized for 1 day. Once the microspheres were fully lyophilized, they were then swollen in 10 μL 0.5 mg/mL docetaxel and apalutamide for 1 day. The next day, the excess drug was removed from the centrifuge tube and 500 μL 80:20 ethanol to DI water was added. A release study was then preformed as described above and the release profile for 20% barium microspheres was obtained.

[2] = Docetaxel release from PEG gels/microspheres (Example 1); conditions: in the first 60 minutes, loaded at 0.1 mg/ml, released in 20:80 anhydrous ethanol:di-water
Protocol: Docetaxel release and in vivo efficacy. Docetaxel was released from the PEG microspheres over several hours, with 60% released in the first 60 minutes (FIG. 2A). For bulk release experiments, docetaxel was dissolved in anhydrous ethanol, loaded in PEG gels at 0.1 mg/ml and released in a 20:80 anhydrous ethanol:di-water. Release was followed by absorbance measurements at 220 nm. […] PC3 cells (2×10^6 cells) were injected and grown to ˜120 mm^3 tumor volume prior to treatment.

[3] = Apalutamide and docetaxel bulk release from hydrogels; conditions: after 24 h; from both PEG-only and 20% BaSO4 hydrogel
Protocol: To determine bulk release of drugs from hydrogels, acridine orange (AO), docetaxel, bicalutamide, and apalutamide release into a sink volume was measured. Samples from the sink volume were taken over time and then the amount of sample volume that was taken out was replaced with the same amount of sink solution. The sink solution for AO experiments was PBS and the sink solution used for docetaxel, bicalutamide, and apalutamide was 80:20 ethanol to DI water. The absorbance of each sample solution was measured to calculate the concentration of drug in the sample solution. The equation used to calculate these concentrations was from the standard curves obtained for each drug or acridine orange (AO). The concentrations of drugs or AO in solution allowed for quantifying each drug release profile as well as their diffusion coefficient from a hydrogel. Apalutamide (0.5 mg/mL) stock solution was prepared in 80:20 DMSO or ethanol and DI water. A standard curve was constructed for apalutamide by creating samples of known concentrations and measuring the absorbance at 260 nm of each sample. Hydrogels were then fabricated with conditions: PEG+Doc+Apa and PEG+BaSO4+Doc+Apa (Table 6). […] Absorbances of 230 nm and 260 nm were measured for each sample to be able to obtain concentrations of docetaxel and apalutamide released into solution.

initial burst release [1] [%] | docetaxel released [2] [%] | drug released [3] [%] | Compound
~80 | – | – | CNC(=O)c1ccc(N2C(=S)N(c3cnc(C#N)c(C(F)(F)F)c3)C(=O)C23CCC3)cc1F [Apalutamide]
~90 | 60 | ~90 | CC(=O)O[C@@]12CO[C@@H]1C[C@H](O)[C@@]1(C)C(=O)[C@H](O)C3=C(C)[C@@H](OC(=O)[C@H](O)[C@@H](NC(=O)OC(C)(C)C)c4ccccc4)C[C@@](O)([C@@H](OC(=O)c4ccccc4)[C@H]21)C3(C)C [Docetaxel]
